Source: PMC12155096 (International Journal of Molecular Sciences, 2025)
Where a name gives a salt, the structure may show the parent alone.

Molecular target: T1, human CYP1A2 (Homo sapiens, UniProt P05177)
T1 sequence (P05177 1-516): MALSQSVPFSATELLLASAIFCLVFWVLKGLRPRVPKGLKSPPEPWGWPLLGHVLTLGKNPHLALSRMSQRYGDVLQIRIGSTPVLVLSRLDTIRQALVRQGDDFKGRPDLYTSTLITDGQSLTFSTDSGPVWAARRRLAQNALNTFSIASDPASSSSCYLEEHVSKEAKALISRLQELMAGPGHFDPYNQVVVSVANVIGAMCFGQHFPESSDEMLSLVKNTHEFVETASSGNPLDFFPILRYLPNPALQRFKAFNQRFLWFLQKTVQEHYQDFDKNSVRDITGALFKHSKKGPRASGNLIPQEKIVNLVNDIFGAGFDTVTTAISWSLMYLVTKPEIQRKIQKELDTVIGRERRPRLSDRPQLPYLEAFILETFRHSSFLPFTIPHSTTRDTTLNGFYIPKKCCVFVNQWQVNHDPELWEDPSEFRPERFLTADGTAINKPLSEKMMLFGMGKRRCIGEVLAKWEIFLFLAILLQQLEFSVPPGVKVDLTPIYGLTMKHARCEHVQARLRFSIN
Assay: not given
Settings: not given

Compound	CYP1A2 AC50 (half-maximal activity concentration)	AC50
CN1CC[C@]23c4c5ccc(O)c4O[C@H]2[C@@H](O)C=C[C@H]3[C@H]1C5 [Morphine sulfate pentahydrate]	Inactive	–
Cresyl diphenyl phosphate	–	8.9 µM

Same assay, conditions: human

Compound	CYP1A2 Efficacy (in parenthesis)
O=C(Nc1ccc(Cl)c(Cl)c1)C1CC1 [Cypromid]	0.54 ± 0.08 (-97 ± 6) %
Clc1ccc(C(c2ccc(Cl)cc2)C(Cl)(Cl)Cl)cc1 [p,p'-DDT]	9.36 ± 3.19 (-74 ± 16) %

Molecular target: T2, human CYP2C9 (Homo sapiens, UniProt P11712)
Assay: not given
Settings: not given

T2 sequence (P11712 whole entry): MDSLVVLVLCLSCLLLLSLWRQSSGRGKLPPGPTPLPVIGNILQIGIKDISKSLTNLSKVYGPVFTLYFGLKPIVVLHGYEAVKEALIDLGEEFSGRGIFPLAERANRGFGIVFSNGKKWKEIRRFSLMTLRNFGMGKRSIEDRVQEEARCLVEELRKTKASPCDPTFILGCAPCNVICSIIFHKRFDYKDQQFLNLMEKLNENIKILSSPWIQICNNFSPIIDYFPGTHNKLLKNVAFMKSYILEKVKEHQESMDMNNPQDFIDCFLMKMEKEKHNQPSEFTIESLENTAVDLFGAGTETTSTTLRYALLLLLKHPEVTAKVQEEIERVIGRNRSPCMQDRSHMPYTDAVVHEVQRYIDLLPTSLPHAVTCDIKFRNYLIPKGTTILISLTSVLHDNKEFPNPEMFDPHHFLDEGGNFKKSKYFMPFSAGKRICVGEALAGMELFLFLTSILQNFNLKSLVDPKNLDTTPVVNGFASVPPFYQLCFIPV

Compound	CYP2C9 Efficacy (in parenthesis)	IC50	CYP2C9 AC50 (half-maximal activity concentration)	AC50
CCC(OC(C)=O)C(CC(C)NC)(c1ccccc1)c1ccccc1.Cl (centres unmarked)	63.02 ± 38.37 (-35 ± 6) %	63 µM	–	–
CCC(=O)O[C@]1(C(=O)COC)[C@@H](C)C[C@H]2[C@@H]3CCC4=CC(=O)C=C[C@]4(C)[C@@]3(F)[C@@H](O)C[C@@]21C [Amelometasone]	–	26 µM	–	–
O=C1c2ccccc2C(=O)C1C(=O)C(c1ccccc1)c1ccc(Cl)cc1 (centres unmarked) [Cholorophacinone]	–	0.9 µM	–	–
CN1CC[C@]23c4c5ccc(O)c4O[C@H]2[C@@H](O)C=C[C@H]3[C@H]1C5 [Morphine sulfate pentahydrate]	–	–	Inactive	–
Cresyl diphenyl phosphate	–	–	–	6.19 µM

Same assay, conditions: human

Compound	CYP2C9 Efficacy (in parenthesis)
COc1c2occc2cc2ccc(=O)oc12 [8-Methoxypsoralen]	7.56 ± 2.14 (-95 ± 11) %
O=C(Nc1ccc(S(=O)(=O)N2CCOCC2)cc1)c1cc(Cl)ccc1NS(=O)(=O)c1ccc(Cl)s1 [Ataciguat]	0.05 ± 0.01 (-98 ± 7) %
O=C(Nc1ccc(Cl)c(Cl)c1)C1CC1 [Cypromid]	25.27 ± 7.04 (-70 ± 11) %
Cc1ccccc1C(=O)Nc1ccc(C(=O)N2CCCC(N(C)C)c3ccccc32)cc1 (centres unmarked) [Mozavaptan]	26.02 ± 12.23 (-35 ± 0) %
Clc1ccc(C(c2ccc(Cl)cc2)C(Cl)(Cl)Cl)cc1 [p,p'-DDT]	4.33 ± 1.82 (-100 ± 9) %

Molecular target: T3, human CYP2C19 (Homo sapiens, UniProt P33261)
Assay: not given
Settings: not given

T3 sequence (P33261 whole entry): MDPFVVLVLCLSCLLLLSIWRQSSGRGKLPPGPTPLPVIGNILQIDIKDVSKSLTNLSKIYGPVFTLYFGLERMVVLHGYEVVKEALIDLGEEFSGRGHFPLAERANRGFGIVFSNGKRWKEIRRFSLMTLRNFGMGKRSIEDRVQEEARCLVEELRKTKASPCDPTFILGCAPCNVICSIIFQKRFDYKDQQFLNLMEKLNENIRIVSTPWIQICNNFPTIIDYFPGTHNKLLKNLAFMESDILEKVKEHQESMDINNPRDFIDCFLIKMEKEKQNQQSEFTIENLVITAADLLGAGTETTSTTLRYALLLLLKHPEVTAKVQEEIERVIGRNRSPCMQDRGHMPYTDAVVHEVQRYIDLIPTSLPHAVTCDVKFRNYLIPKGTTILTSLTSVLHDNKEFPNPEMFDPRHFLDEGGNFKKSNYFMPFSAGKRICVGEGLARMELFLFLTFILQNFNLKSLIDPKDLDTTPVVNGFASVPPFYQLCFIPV

Compound	CYP2C19 Efficacy (in parenthesis)	IC50	CYP2C19 AC50 (half-maximal activity concentration)	AC50
CCC(OC(C)=O)C(CC(C)NC)(c1ccccc1)c1ccccc1.Cl (centres unmarked)	21.99 ± 10.33 (-95 ± 7) %	22 µM	–	–
CCC(=O)O[C@]1(C(=O)COC)[C@@H](C)C[C@H]2[C@@H]3CCC4=CC(=O)C=C[C@]4(C)[C@@]3(F)[C@@H](O)C[C@@]21C [Amelometasone]	–	43.6 µM	–	–
CN1CC[C@]23c4c5ccc(O)c4O[C@H]2[C@@H](O)C=C[C@H]3[C@H]1C5 [Morphine sulfate pentahydrate]	–	–	Inactive	–
Cresyl diphenyl phosphate	–	–	–	4.18 µM

Same assay, conditions: human

Compound	CYP2C19 Efficacy (in parenthesis)
COc1c2occc2cc2ccc(=O)oc12 [8-Methoxypsoralen]	12.67 ± 4.61 (-156 ± 24) %
O=C(Nc1ccc(S(=O)(=O)N2CCOCC2)cc1)c1cc(Cl)ccc1NS(=O)(=O)c1ccc(Cl)s1 [Ataciguat]	41.28 ± 3.36 (-131 ± 15) %
O=C(Nc1ccc(Cl)c(Cl)c1)C1CC1 [Cypromid]	12.07 ± 3.02 (-106 ± 21) %
Clc1ccc(C(c2ccc(Cl)cc2)C(Cl)(Cl)Cl)cc1 [p,p'-DDT]	0.04 ± 0.02 (-132 ± 4) %

Molecular target: human CYP2D6 (Homo sapiens, UniProt P10635)
Assay: not given
Settings: not given

Sequence of human CYP2D6 (P10635 whole entry): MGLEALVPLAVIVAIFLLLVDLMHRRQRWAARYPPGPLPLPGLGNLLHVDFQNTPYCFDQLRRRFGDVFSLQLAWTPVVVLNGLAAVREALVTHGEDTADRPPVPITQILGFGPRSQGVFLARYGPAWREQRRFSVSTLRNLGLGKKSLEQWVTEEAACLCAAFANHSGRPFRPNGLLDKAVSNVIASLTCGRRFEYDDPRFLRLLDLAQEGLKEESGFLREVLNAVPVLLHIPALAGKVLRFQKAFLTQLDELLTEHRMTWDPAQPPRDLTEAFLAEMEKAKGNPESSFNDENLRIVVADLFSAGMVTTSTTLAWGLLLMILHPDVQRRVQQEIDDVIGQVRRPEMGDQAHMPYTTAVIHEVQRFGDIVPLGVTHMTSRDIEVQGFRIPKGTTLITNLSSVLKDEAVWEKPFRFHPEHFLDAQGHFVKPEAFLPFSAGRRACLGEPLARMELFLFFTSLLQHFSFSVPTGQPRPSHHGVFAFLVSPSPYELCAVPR

Compound	CYP2D6 Efficacy (in parenthesis)	IC50	CYP2D6 AC50 (half-maximal activity concentration)
CCC(OC(C)=O)C(CC(C)NC)(c1ccccc1)c1ccccc1.Cl (centres unmarked)	15.52 ± 2.14 (-95 ± 2) %	15.5 µM	–
Cc1cc(O)c(Cl)c(C)c1Cl [2,4-Dichloro-3,5-dimethylphenol]	–	–	Inactive
CCC(=O)O[C@]1(C(=O)COC)[C@@H](C)C[C@H]2[C@@H]3CCC4=CC(=O)C=C[C@]4(C)[C@@]3(F)[C@@H](O)C[C@@]21C [Amelometasone]	–	19.5 µM	–
Cresyl diphenyl phosphate	–	–	Inactive

Same assay, conditions: human

Compound	CYP2D6 Efficacy (in parenthesis)
COc1c2occc2cc2ccc(=O)oc12 [8-Methoxypsoralen]	7.42 ± 0.95 (-106 ± 2) %

Molecular target: T1, human CYP1A2
Assay: biochemical
Settings: not given

Compound	AC50	IC50
Cc1cc(O)c(Cl)c(C)c1Cl [2,4-Dichloro-3,5-dimethylphenol]	14.4 µM	–
O=C1c2ccccc2CCc2ccccc21 [Dibenzosuberone]	1.58 µM	–
COc1ccnc2c1CCCCC2[S+]([O-])c1nc2ccccc2[nH]1 (centres unmarked) [Nepaprazole]	–	14.9 ± 0.97 µM
O=C(NOCC1CC1)c1ccc(F)c(F)c1Nc1ccc(I)cc1Cl [PD-184352]	–	14.4 ± 0.97 µM
O=C1OC(OC(=O)c2cccnc2Nc2cccc(C(F)(F)F)c2)c2ccccc21 (centres unmarked) [Talniflumate]	10 ± 5.3 µM	–
CCCCCNC(=N)N/N=C/c1c[nH]c2ccc(OC)cc12 [Tegaserod maleate]	4.12 ± 0.93 µM	–
CC(c1cc2ccccc2s1)N(O)C(N)=O (centres unmarked) [zileuton, reference compound]	–	5.3 µM

Same assay, conditions: CYP1A2 AC50 (half-maximal activity concentration)

Compound	AC50
Brc1ccccc1-c1ccccc1 [2-Bromobiphenyl]	17 µM
CCc1oc2ccccc2c1C(=O)c1cc(Br)c(O)c(Br)c1 [Benzbromarone]	28.9 µM
O=C(c1ccccc1)c1ccccc1 [Benzophenone]	13.7 µM
O=C(OCc1ccccc1)c1ccccc1 [Benzyl benzoate]	14.9 µM
CCOC(=O)c1ccccc1C(=O)OCC [Diethyl phthalate]	3.24 µM
C[C@]12CC[C@@H]3c4ccc(O)cc4CC[C@H]3[C@@H]1CC[C@@H]2OC(=O)CCC1CCCC1 [Estradiol cypionate]	16.6 µM
CC(C)OC(=O)C(C)(C)Oc1ccc(C(=O)c2ccc(Cl)cc2)cc1 [Fenofibrate]	19.9 µM
O=C(O)Cc1sc(-c2ccccc2)nc1-c1ccc(Cl)cc1 [Fentiazac]	24 µM
CC(C)Oc1ccc2c(=O)c(-c3ccccc3)coc2c1 [Ipriflavone]	11.6 µM

Same assay, conditions: CYP1A2 IC50 (half-maximal inhibitory concentration)

Compound	IC50
O=C(Nc1ccc(Cl)c(Cl)c1)C1CC1 [Cypromid]	0.54 µM
Clc1ccc(C(c2ccc(Cl)cc2)C(Cl)(Cl)Cl)cc1 [p,p'-DDT]	9.36 µM

Molecular target: T2, human CYP2C9
Assay: biochemical
Settings: not given

Compound	AC50	IC50
Cc1cc(O)c(Cl)c(C)c1Cl [2,4-Dichloro-3,5-dimethylphenol]	9.3 µM	–
O=C(Nc1ccc(S(=O)(=O)N2CCOCC2)cc1)c1cc(Cl)ccc1NS(=O)(=O)c1ccc(Cl)s1 [Ataciguat]	–	0.05 ± 0.01 µM
O=C1c2ccccc2CCc2ccccc21 [Dibenzosuberone]	33.4 µM	–
COc1ccnc2c1CCCCC2[S+]([O-])c1nc2ccccc2[nH]1 (centres unmarked) [Nepaprazole]	–	13.9 ± 1.59 µM
O=C(NOCC1CC1)c1ccc(F)c(F)c1Nc1ccc(I)cc1Cl [PD-184352]	–	0.68 ± 0.17 µM
O=C1OC(OC(=O)c2cccnc2Nc2cccc(C(F)(F)F)c2)c2ccccc21 (centres unmarked) [Talniflumate]	5.56 ± 2.56 µM	–
CCCCCNC(=N)N/N=C/c1c[nH]c2ccc(OC)cc12 [Tegaserod maleate]	33.3 ± 14 µM	–

Same assay, conditions: CYP2C9 AC50 (half-maximal activity concentration)

Compound	AC50
O=C(c1ccccc1)c1ccccc1 [Benzophenone]	28.4 µM
O=C(OCc1ccccc1)c1ccccc1 [Benzyl benzoate]	27.7 µM
C[C@]12CC[C@@H]3c4ccc(O)cc4CC[C@H]3[C@@H]1CC[C@@H]2OC(=O)CCC1CCCC1 [Estradiol cypionate]	16.1 µM
CC(C)OC(=O)C(C)(C)Oc1ccc(C(=O)c2ccc(Cl)cc2)cc1 [Fenofibrate]	3.17 µM
O=C(O)Cc1sc(-c2ccccc2)nc1-c1ccc(Cl)cc1 [Fentiazac]	6.24 µM
CC(C)Oc1ccc2c(=O)c(-c3ccccc3)coc2c1 [Ipriflavone]	20.1 µM

Same assay, conditions: CYP2C9 IC50 (half-maximal inhibitory concentration)

Compound	IC50
COc1c2occc2cc2ccc(=O)oc12 [8-Methoxypsoralen]	7.56 µM
O=C(Nc1ccc(Cl)c(Cl)c1)C1CC1 [Cypromid]	25.3 µM
Cc1ccccc1C(=O)Nc1ccc(C(=O)N2CCCC(N(C)C)c3ccccc32)cc1 (centres unmarked) [Mozavaptan]	26 µM
Clc1ccc(C(c2ccc(Cl)cc2)C(Cl)(Cl)Cl)cc1 [p,p'-DDT]	4.33 µM

Molecular target: T3, human CYP2C19
Assay: biochemical
Settings: not given

Compound	AC50	IC50
Cc1cc(O)c(Cl)c(C)c1Cl [2,4-Dichloro-3,5-dimethylphenol]	71.9 µM	–
O=C(Nc1ccc(S(=O)(=O)N2CCOCC2)cc1)c1cc(Cl)ccc1NS(=O)(=O)c1ccc(Cl)s1 [Ataciguat]	–	41.3 ± 3.36 µM
O=C1c2ccccc2CCc2ccccc21 [Dibenzosuberone]	8.39 µM	–
COc1ccnc2c1CCCCC2[S+]([O-])c1nc2ccccc2[nH]1 (centres unmarked) [Nepaprazole]	–	8.96 ± 4.72 µM
O=C(NOCC1CC1)c1ccc(F)c(F)c1Nc1ccc(I)cc1Cl [PD-184352]	–	0.39 ± 0.13 µM

Same assay, conditions: CYP2C19 AC50 (half-maximal activity concentration)

Compound	AC50
O=C(OCc1ccccc1)c1ccccc1 [Benzyl benzoate]	21.3 µM
C[C@]12CC[C@@H]3c4ccc(O)cc4CC[C@H]3[C@@H]1CC[C@@H]2OC(=O)CCC1CCCC1 [Estradiol cypionate]	26 µM

Same assay, conditions: CYP2C19 IC50 (half-maximal inhibitory concentration)

Compound	IC50
O=C(Nc1ccc(Cl)c(Cl)c1)C1CC1 [Cypromid]	12.1 µM
Clc1ccc(C(c2ccc(Cl)cc2)C(Cl)(Cl)Cl)cc1 [p,p'-DDT]	0.04 µM
